In ChEMBL document CHEMBL6182889, “Discovery of the first-in-class DOT1L PROTAC degrader” (Eur J Med Chem, 2025):
Calls of active or inactive are those of the source. No cut-off for these calls is given here.

Experiments:
[1] = target: Histone-lysine N-methyltransferase 2A (Homo sapiens) (UniProt Q03164); test: Inhibition of human MLL1 using nucleosomes and SAM as substrate at 10 uM by radiometric Hotspot assay
[2] = target: T1, von Hippel-Lindau disease tumor suppressor/Histone-lysine N-methyltransferase, H3 lysine-79 specific (Homo sapiens, UniProt Q8TEK3+P40337); test: PROTAC activity at VHL/DOT1L in mixed-lineage leukemia rearranged (MLL-r) human MV4-11 cells assessed as induction of DOTIL degradation by measuring fold change in DOT1L protein level at 3 uM incubated for 4 hrs by western blot analysis relative to control; assay type: cell-based
Target sequence in this assay (P40337 whole entry, looked up): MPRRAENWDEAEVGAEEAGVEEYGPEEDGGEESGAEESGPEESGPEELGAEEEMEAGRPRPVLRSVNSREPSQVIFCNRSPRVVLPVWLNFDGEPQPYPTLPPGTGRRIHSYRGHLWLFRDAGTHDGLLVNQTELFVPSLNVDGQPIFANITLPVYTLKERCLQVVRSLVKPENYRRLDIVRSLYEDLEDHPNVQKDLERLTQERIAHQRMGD
Target sequence in this assay (Q8TEK3 whole entry, looked up): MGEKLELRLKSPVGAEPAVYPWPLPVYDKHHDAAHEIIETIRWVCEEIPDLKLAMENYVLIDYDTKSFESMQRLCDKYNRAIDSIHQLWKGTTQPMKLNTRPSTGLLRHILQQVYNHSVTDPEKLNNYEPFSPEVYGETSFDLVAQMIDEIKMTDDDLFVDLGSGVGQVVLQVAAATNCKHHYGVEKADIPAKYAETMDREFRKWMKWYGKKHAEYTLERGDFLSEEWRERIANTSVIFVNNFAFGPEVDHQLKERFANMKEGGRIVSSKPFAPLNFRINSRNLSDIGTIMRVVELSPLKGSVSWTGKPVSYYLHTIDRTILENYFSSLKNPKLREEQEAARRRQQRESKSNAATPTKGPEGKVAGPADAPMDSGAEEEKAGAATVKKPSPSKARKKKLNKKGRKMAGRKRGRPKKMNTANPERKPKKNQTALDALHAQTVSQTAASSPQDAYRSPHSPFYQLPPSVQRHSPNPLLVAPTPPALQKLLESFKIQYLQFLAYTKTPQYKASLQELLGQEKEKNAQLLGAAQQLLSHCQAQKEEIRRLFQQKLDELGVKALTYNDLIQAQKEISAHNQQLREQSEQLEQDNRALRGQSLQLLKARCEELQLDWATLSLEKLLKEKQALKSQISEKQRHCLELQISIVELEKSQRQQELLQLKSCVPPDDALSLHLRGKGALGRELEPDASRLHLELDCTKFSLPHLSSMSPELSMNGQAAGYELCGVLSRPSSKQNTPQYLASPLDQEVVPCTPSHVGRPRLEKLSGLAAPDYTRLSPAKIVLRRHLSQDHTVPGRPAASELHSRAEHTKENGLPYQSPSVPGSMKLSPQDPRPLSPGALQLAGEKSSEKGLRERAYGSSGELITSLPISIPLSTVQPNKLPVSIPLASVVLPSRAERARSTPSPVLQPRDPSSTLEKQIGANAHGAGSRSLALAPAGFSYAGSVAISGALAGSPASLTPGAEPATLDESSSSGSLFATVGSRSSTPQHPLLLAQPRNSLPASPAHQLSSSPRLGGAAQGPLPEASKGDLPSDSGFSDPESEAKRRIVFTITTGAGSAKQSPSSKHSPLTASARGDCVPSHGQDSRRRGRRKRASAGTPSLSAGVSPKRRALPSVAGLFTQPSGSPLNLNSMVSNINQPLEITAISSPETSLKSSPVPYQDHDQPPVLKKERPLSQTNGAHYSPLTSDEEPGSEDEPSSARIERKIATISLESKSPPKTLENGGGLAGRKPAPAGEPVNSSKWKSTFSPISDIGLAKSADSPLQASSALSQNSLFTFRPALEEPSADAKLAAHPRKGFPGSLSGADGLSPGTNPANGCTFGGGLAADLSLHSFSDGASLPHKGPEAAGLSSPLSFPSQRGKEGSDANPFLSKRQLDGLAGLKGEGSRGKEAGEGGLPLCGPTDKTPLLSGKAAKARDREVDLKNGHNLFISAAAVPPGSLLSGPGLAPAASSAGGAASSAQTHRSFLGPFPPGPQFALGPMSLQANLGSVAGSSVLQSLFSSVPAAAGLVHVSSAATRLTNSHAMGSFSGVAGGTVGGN

[3] = target: T1, von Hippel-Lindau disease tumor suppressor/Histone-lysine N-methyltransferase, H3 lysine-79 specific; test: PROTAC activity at VHL/DOT1L in mixed-lineage leukemia rearranged (MLL-r) human MV4-11 cells assessed as induction of DOTIL degradation by measuring fold change in DOT1L protein level at 3 uM incubated for 8 hrs by western blot analysis relative to control; assay type: cell-based
Target sequence in this assay (P40337 whole entry, looked up): as the sequence (P40337 whole entry, looked up) above
Target sequence in this assay (Q8TEK3 whole entry, looked up): as the sequence (Q8TEK3 whole entry, looked up) above

[4] = target: T1, von Hippel-Lindau disease tumor suppressor/Histone-lysine N-methyltransferase, H3 lysine-79 specific; test: PROTAC activity at VHL/DOT1L in mixed-lineage leukemia rearranged (MLL-r) human MV4-11 cells assessed as induction of DOT1L degradation incubated for 24 hrs by western blot analysis; assay type: cell-based
[5] = target: T1, von Hippel-Lindau disease tumor suppressor/Histone-lysine N-methyltransferase, H3 lysine-79 specific; test: PROTAC activity at VHL/DOT1L in mixed-lineage leukemia rearranged (MLL-r) human MV4-11 cells assessed as induction of DOTIL degradation by measuring fold change in H3K79Me2 level at 3 uM incubated for 4 hrs by western blot analysis relative to control; assay type: cell-based
Target sequence in this assay (P40337 whole entry, looked up): as the sequence (P40337 whole entry, looked up) above
Target sequence in this assay (Q8TEK3 whole entry, looked up): as the sequence (Q8TEK3 whole entry, looked up) above

[6] = target: T1, von Hippel-Lindau disease tumor suppressor/Histone-lysine N-methyltransferase, H3 lysine-79 specific; test: PROTAC activity at VHL/DOT1L in mixed-lineage leukemia rearranged (MLL-r) human THP-1 cells assessed as induction of DOTIL degradation by measuring fold change in H3K79Me2 level at 3 uM incubated for 1 hr by western blot analysis relative to control; assay type: cell-based
Target sequence in this assay (P40337 whole entry, looked up): as the sequence (P40337 whole entry, looked up) above
Target sequence in this assay (Q8TEK3 whole entry, looked up): as the sequence (Q8TEK3 whole entry, looked up) above

[7] = target: T1, von Hippel-Lindau disease tumor suppressor/Histone-lysine N-methyltransferase, H3 lysine-79 specific; test: PROTAC activity at VHL/DOT1L in mixed-lineage leukemia rearranged (MLL-r) human THP-1 cells assessed as induction of DOT1L degradation at 3 uM co-incubated with VHL ligand for 24 hrs by western blot analysis; assay type: cell-based
Target sequence in this assay (P40337 whole entry, looked up): as the sequence (P40337 whole entry, looked up) above
Target sequence in this assay (Q8TEK3 whole entry, looked up): as the sequence (Q8TEK3 whole entry, looked up) above

[8] = target: T1, von Hippel-Lindau disease tumor suppressor/Histone-lysine N-methyltransferase, H3 lysine-79 specific; test: PROTAC activity at VHL/DOT1L in mixed-lineage leukemia rearranged (MLL-r) human MOLM-13 cells assessed as induction of DOT1L degradation at 0.3 to 3 uM by western blot analysis; assay type: cell-based; settings: dose 0.3-3 µM
Target sequence in this assay (P40337 whole entry, looked up): as the sequence (P40337 whole entry, looked up) above
Target sequence in this assay (Q8TEK3 whole entry, looked up): as the sequence (Q8TEK3 whole entry, looked up) above

[9] = target: T2, Histone-lysine N-methyltransferase EHMT2 (Homo sapiens) (UniProt Q96KQ7); test: Inhibition of human G9a using Histone H3 and SAM as substrate at 10 uM by radiometric Hotspot assay
T2 sequence (whole entry): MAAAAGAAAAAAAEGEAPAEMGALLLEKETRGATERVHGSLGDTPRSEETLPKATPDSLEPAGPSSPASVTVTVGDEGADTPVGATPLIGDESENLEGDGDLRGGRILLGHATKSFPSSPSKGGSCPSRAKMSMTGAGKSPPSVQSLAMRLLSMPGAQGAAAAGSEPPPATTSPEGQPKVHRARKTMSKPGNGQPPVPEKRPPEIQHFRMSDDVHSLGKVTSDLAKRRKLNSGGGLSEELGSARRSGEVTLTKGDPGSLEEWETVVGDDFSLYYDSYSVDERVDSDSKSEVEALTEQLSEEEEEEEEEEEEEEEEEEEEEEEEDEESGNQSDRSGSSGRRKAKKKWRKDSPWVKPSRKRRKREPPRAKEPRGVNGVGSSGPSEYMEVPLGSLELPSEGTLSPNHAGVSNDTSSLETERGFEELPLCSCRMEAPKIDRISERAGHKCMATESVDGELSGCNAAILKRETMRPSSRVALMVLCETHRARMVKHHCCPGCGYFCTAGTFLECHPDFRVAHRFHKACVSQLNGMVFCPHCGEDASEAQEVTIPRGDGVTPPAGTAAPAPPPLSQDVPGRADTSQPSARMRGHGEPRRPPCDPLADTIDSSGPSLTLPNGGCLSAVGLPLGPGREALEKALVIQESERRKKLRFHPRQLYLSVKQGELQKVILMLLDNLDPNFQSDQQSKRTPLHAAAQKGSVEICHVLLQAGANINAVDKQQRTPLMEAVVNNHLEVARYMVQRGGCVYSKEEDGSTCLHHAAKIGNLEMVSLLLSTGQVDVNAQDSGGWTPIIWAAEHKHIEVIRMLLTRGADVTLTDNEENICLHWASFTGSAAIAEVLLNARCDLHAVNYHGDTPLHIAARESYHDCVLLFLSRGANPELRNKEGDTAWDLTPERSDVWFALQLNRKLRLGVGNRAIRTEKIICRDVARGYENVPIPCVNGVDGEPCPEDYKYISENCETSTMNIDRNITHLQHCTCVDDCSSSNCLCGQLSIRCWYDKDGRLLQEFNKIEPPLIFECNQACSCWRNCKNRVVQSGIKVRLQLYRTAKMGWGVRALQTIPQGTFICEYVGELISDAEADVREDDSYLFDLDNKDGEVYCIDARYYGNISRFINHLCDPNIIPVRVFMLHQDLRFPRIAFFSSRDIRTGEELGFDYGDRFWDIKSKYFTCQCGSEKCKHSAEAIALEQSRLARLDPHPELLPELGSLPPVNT

[10] = target: T1, von Hippel-Lindau disease tumor suppressor/Histone-lysine N-methyltransferase, H3 lysine-79 specific; test: PROTAC activity at VHL/DOT1L in mixed-lineage leukemia rearranged (MLL-r) human THP-1 cells assessed as maximal induction of DOT1L degradation incubated for 24 hrs by western blot analysis relative to control; assay type: cell-based
MCF-10A = test: Cytotoxicity against human MCF-10A cells assessed as inhibition of cell growth incubated for 7 days by CCK-8 assay; assay type: toxicity, cell-based; settings: 168 h, time 7 day
[11] = target: T3, Histone-arginine methyltransferase CARM1 (Homo sapiens) (UniProt Q86X55); test: Inhibition of human PRMT4 using histone H3 and SAM as substrate at 10 uM by radiometric Hotspot assay
T3 sequence (whole entry): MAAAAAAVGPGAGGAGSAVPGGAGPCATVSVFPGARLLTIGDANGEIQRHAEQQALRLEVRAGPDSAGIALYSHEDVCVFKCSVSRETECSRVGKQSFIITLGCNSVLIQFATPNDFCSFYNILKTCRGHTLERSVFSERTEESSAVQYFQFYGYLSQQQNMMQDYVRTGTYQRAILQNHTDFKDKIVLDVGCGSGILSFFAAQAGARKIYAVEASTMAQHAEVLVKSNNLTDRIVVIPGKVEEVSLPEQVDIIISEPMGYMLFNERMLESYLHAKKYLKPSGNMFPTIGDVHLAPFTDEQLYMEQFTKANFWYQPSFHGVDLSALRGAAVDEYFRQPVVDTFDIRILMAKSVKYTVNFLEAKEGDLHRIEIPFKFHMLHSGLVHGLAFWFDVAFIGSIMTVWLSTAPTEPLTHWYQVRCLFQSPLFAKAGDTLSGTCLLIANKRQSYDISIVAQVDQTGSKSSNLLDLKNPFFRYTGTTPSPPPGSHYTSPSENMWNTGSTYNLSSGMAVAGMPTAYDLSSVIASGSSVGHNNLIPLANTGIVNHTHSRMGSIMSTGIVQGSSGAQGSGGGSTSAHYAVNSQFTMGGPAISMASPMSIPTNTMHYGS

With `Cc1ncsc1-c1ccc([C@H](CC(=O)NCCCCCCNC(=O)COc2nc(N)nc(Nc3cc(S(N)(=O)=O)ccc3N[C@@H](c3cccc4c3OC(F)(F)O4)c3ncccc3Cl)n2)NC(=O)[C@@H]2C[C@@H](O)CN2C(=O)[C@@H](NC(=O)C2(F)CC2)C(C)(C)C)cc1` the inhibition [1] was “inactive”, the fold change (FC) [2] was 0.27 and the fold change (FC) [3] was 0.15. For the same compound, the Activity [4] was “Dose-dependent-effect”, the DC50 [4] was 25 nM and the fold change (FC) [5] was 0.32. The fold change (FC) [6] was 0.99, the Activity [7] was “inactive” and the Activity [8] was “Active”. The inhibition [9] was “inactive”, the Activity [10] was 69% and the Activity (MCF-10A) was “Non-toxic”. The inhibition [11] was “inactive”.
